Species on record: Rattus norvegicus
Test: DrugMatrix - Regimen: Daily Repeat
Type: toxicity, organism-based, Sprague-Dawley
Parameters: regimen Daily Repeat, gender Male, age 6-8 weeks
Conditions: in vivo, po, route oral GAVAGE, […]; for ABSOLUTE BASOPHIL / ABSOLUTE EOSINOPHIL / ABSOLUTE LYMPHOCYTE / ABSOLUTE MONOCYTE / ABSOLUTE SEGMENTED NEUTROPHIL / BASOPHIL / EOSINOPHIL / ERYTHROCYTE COUNT / HEMATOCRIT / HEMOGLOBIN / LEUKOCYTE COUNT / LYMPHOCYTE / MEAN CORPUSCULAR HEMOGLOBIN / MEAN CORPUSCULAR HEMOGLOBIN CONCENTRATION / MEAN CORPUSCULAR VOLUME / MONOCYTE / NEUTROPHIL / NUCLEATED RED BLOOD CELLS / PLATELET COUNT: tissue Blood; for ALANINE AMINOTRANSFERASE / ALBUMIN / ALKALINE PHOSPHATASE / ASPARTATE AMINOTRANSFERASE / BLOOD UREA NITROGEN / CARBON DIOXIDE / CHLORIDE / CHOLESTEROL / CREATINE PHOSPHOKINASE / CREATININE / GLUCOSE / LACTATE DEHYDROGENASE / LIPASE / PHOSPHORUS / POTASSIUM / SODIUM / TOTAL BILIRUBIN / TOTAL PROTEIN / URIC ACID: tissue Plasma
[1] = 0 mg/kg, 72 h, dose level Control, time 3 day
[2] = 0 mg/kg, 120 h, dose level Control, time 5 day
[3] = 2 mg/kg, 72 h, dose level High, time 3 day

Question: How did the “ABSOLUTE BASOPHIL” value [1] turn out when `COc1ccc2c(c1)c(CC(=O)OCC(=O)O)c(C)n2C(=O)c1ccc(Cl)cc1` [ACEMETACIN] was run?
Answer: 0 CELLS/uL

Question: And the “ABSOLUTE EOSINOPHIL” value [1]?
Answer: 138.5 CELLS/uL

Question: What about the “ABSOLUTE LYMPHOCYTE” value [1] of the same compound?
Answer: 13978.67 CELLS/uL

Question: And the “ABSOLUTE MONOCYTE” value [1]?
Answer: 391 CELLS/uL

Question: What about the “ABSOLUTE SEGMENTED NEUTROPHIL” value [1] of the same compound?
Answer: 1608.5 CELLS/uL

Question: And the BASOPHIL [1]?
Answer: 0%

Question: And the EOSINOPHIL [1]?
Answer: 1%

Question: What about the “ERYTHROCYTE COUNT” value [1] of the same compound?
Answer: 5.8 x10E6/uL

Question: And the HEMATOCRIT [1]?
Answer: 36.22%

Question: What about the HEMOGLOBIN [1] of the same compound?
Answer: 13.65 G/DL

Question: And the “LEUKOCYTE COUNT” value [1]?
Answer: 16.12 x10E3/uL

Question: And the LYMPHOCYTE [1]?
Answer: 86.67%

Question: And the “MEAN CORPUSCULAR HEMOGLOBIN” value [1]?
Answer: 23.58 pg

Question: And the “MEAN CORPUSCULAR HEMOGLOBIN CONCENTRATION” value [1]?
Answer: 37.72 G/DL

Question: And the “MEAN CORPUSCULAR VOLUME” value [1]?
Answer: 62.52 fL

Question: What about the MONOCYTE [1] of the same compound?
Answer: 2.5%

Question: What about the NEUTROPHIL [1] of the same compound?
Answer: 9.83%

Question: What about the “NUCLEATED RED BLOOD CELLS” value [1] of the same compound?
Answer: 0 /100WBC

Question: What about the “PLATELET COUNT” value [1] of the same compound?
Answer: 1214.17 x10E3/uL

Question: What about the “ALANINE AMINOTRANSFERASE” value [1] of the same compound?
Answer: 59.5 u/L

Question: And the ALBUMIN [1]?
Answer: 4.1 G/DL

Question: What about the “ALKALINE PHOSPHATASE” value [1] of the same compound?
Answer: 393.83 u/L

Question: And the “ASPARTATE AMINOTRANSFERASE” value [1]?
Answer: 87.83 u/L

Question: And the “BLOOD UREA NITROGEN” value [1]?
Answer: 16.33 mg/dL

Question: And the “CARBON DIOXIDE” value [1]?
Answer: 28.17 mmol/L

Question: What about the CHLORIDE [1] of the same compound?
Answer: 100.83 MEQ/L

Question: What about the CHOLESTEROL [1] of the same compound?
Answer: 73.33 mg/dL

Question: And the “CREATINE PHOSPHOKINASE” value [1]?
Answer: 398 u/L

Question: And the CREATININE [1]?
Answer: 0.2 mg/dL

Question: And the GLUCOSE [1]?
Answer: 152.67 mg/dL

Question: What about the “LACTATE DEHYDROGENASE” value [1] of the same compound?
Answer: 501.5 u/L

Question: And the LIPASE [1]?
Answer: 9.5 u/L

Question: And the PHOSPHORUS [1]?
Answer: 10.77 mg/dL

Question: And the POTASSIUM [1]?
Answer: 6.44 MEQ/L

Question: And the SODIUM [1]?
Answer: 143.4 MEQ/L

Question: What about the “TOTAL BILIRUBIN” value [1] of the same compound?
Answer: 0.17 mg/dL

Question: What about the “TOTAL PROTEIN” value [1] of the same compound?
Answer: 5.92 G/DL

Question: And the “URIC ACID” value [1]?
Answer: 1.68 mg/dL

Question: And the “ABSOLUTE BASOPHIL” value [2]?
Answer: 0 CELLS/uL

Question: What about the “ABSOLUTE EOSINOPHIL” value [2] of the same compound?
Answer: 183.33 CELLS/uL

Question: What about the “ABSOLUTE LYMPHOCYTE” value [2] of the same compound?
Answer: 14952.83 CELLS/uL

Question: What about the “ABSOLUTE MONOCYTE” value [2] of the same compound?
Answer: 238.5 CELLS/uL

Question: What about the “ABSOLUTE SEGMENTED NEUTROPHIL” value [2] of the same compound?
Answer: 1642 CELLS/uL

Question: And the BASOPHIL [2]?
Answer: 0%

Question: And the EOSINOPHIL [2]?
Answer: 1%

Question: What about the “ERYTHROCYTE COUNT” value [2] of the same compound?
Answer: 5.89 x10E6/uL

Question: What about the HEMATOCRIT [2] of the same compound?
Answer: 36.13%

Question: What about the HEMOGLOBIN [2] of the same compound?
Answer: 13.37 G/DL

Question: And the “LEUKOCYTE COUNT” value [2]?
Answer: 17.02 x10E3/uL

Question: And the LYMPHOCYTE [2]?
Answer: 87.17%

Question: And the “MEAN CORPUSCULAR HEMOGLOBIN” value [2]?
Answer: 22.73 pg

Question: What about the “MEAN CORPUSCULAR HEMOGLOBIN CONCENTRATION” value [2] of the same compound?
Answer: 37.02 G/DL

Question: What about the “MEAN CORPUSCULAR VOLUME” value [2] of the same compound?
Answer: 61.45 fL

Question: What about the MONOCYTE [2] of the same compound?
Answer: 1.5%

Question: And the NEUTROPHIL [2]?
Answer: 10.33%

Question: What about the “NUCLEATED RED BLOOD CELLS” value [2] of the same compound?
Answer: 0 /100WBC

Question: What about the “PLATELET COUNT” value [2] of the same compound?
Answer: 1183.5 x10E3/uL

Question: What about the “ALANINE AMINOTRANSFERASE” value [2] of the same compound?
Answer: 54.83 u/L

Question: What about the ALBUMIN [2] of the same compound?
Answer: 4.28 G/DL

Question: What about the “ALKALINE PHOSPHATASE” value [2] of the same compound?
Answer: 363.17 u/L

Question: And the “ASPARTATE AMINOTRANSFERASE” value [2]?
Answer: 96.83 u/L

Question: What about the “BLOOD UREA NITROGEN” value [2] of the same compound?
Answer: 15.67 mg/dL

Question: And the “CARBON DIOXIDE” value [2]?
Answer: 26.17 mmol/L

Question: What about the CHLORIDE [2] of the same compound?
Answer: 102.67 MEQ/L

Question: What about the CHOLESTEROL [2] of the same compound?
Answer: 63.67 mg/dL

Question: And the “CREATINE PHOSPHOKINASE” value [2]?
Answer: 594.33 u/L

Question: And the CREATININE [2]?
Answer: 0.2 mg/dL

Question: What about the GLUCOSE [2] of the same compound?
Answer: 182.33 mg/dL

Question: And the “LACTATE DEHYDROGENASE” value [2]?
Answer: 656.5 u/L

Question: And the LIPASE [2]?
Answer: 9.33 u/L

Question: And the PHOSPHORUS [2]?
Answer: 11.7 mg/dL

Question: And the POTASSIUM [2]?
Answer: 5.92 MEQ/L

Question: What about the SODIUM [2] of the same compound?
Answer: 142.62 MEQ/L

Question: And the “TOTAL BILIRUBIN” value [2]?
Answer: 0.13 mg/dL

Question: What about the “TOTAL PROTEIN” value [2] of the same compound?
Answer: 5.85 G/DL

Question: What about the “URIC ACID” value [2] of the same compound?
Answer: 1.8 mg/dL

Question: And the “ABSOLUTE BASOPHIL” value [3]?
Answer: 0 CELLS/uL

Question: And the “ABSOLUTE EOSINOPHIL” value [3]?
Answer: 380 CELLS/uL

Question: What about the “ABSOLUTE LYMPHOCYTE” value [3] of the same compound?
Answer: 13622 CELLS/uL

Question: What about the “ABSOLUTE MONOCYTE” value [3] of the same compound?
Answer: 500 CELLS/uL

Question: And the “ABSOLUTE SEGMENTED NEUTROPHIL” value [3]?
Answer: 2164.67 CELLS/uL

Question: What about the BASOPHIL [3] of the same compound?
Answer: 0%

Question: And the EOSINOPHIL [3]?
Answer: 2.33%

Question: And the “ERYTHROCYTE COUNT” value [3]?
Answer: 5.07 x10E6/uL

Question: And the HEMATOCRIT [3]?
Answer: 32.77%

Question: And the HEMOGLOBIN [3]?
Answer: 12.63 G/DL

Question: And the “LEUKOCYTE COUNT” value [3]?
Answer: 16.67 x10E3/uL

Question: What about the LYMPHOCYTE [3] of the same compound?
Answer: 81.67%

Question: And the “MEAN CORPUSCULAR HEMOGLOBIN” value [3]?
Answer: 24.97 pg

Question: What about the “MEAN CORPUSCULAR HEMOGLOBIN CONCENTRATION” value [3] of the same compound?
Answer: 38.57 G/DL

Question: And the “MEAN CORPUSCULAR VOLUME” value [3]?
Answer: 64.77 fL

Question: What about the MONOCYTE [3] of the same compound?
Answer: 3%

Question: What about the NEUTROPHIL [3] of the same compound?
Answer: 13%

Question: What about the “NUCLEATED RED BLOOD CELLS” value [3] of the same compound?
Answer: 0.33 /100WBC

Question: And the “PLATELET COUNT” value [3]?
Answer: 1026.67 x10E3/uL

Question: What about the “ALANINE AMINOTRANSFERASE” value [3] of the same compound?
Answer: 66.67 u/L

Question: What about the ALBUMIN [3] of the same compound?
Answer: 4.07 G/DL

Question: What about the “ALKALINE PHOSPHATASE” value [3] of the same compound?
Answer: 414.67 u/L

Question: And the “ASPARTATE AMINOTRANSFERASE” value [3]?
Answer: 86 u/L

Question: What about the “BLOOD UREA NITROGEN” value [3] of the same compound?
Answer: 15 mg/dL

Question: And the “CARBON DIOXIDE” value [3]?
Answer: 28.67 mmol/L

Question: And the CHLORIDE [3]?
Answer: 101.67 MEQ/L

Question: What about the CHOLESTEROL [3] of the same compound?
Answer: 68 mg/dL

Question: And the “CREATINE PHOSPHOKINASE” value [3]?
Answer: 297.67 u/L

Question: What about the CREATININE [3] of the same compound?
Answer: 0.19 mg/dL

Question: And the GLUCOSE [3]?
Answer: 146.67 mg/dL

Question: What about the “LACTATE DEHYDROGENASE” value [3] of the same compound?
Answer: 197.67 u/L

Question: And the LIPASE [3]?
Answer: 9.33 u/L

Question: What about the PHOSPHORUS [3] of the same compound?
Answer: 10.4 mg/dL

Question: And the POTASSIUM [3]?
Answer: 6.36 MEQ/L

Question: And the SODIUM [3]?
Answer: 141.2 MEQ/L

Question: And the “TOTAL BILIRUBIN” value [3]?
Answer: 0.17 mg/dL

Question: What about the “TOTAL PROTEIN” value [3] of the same compound?
Answer: 5.47 G/DL

Question: What about the “URIC ACID” value [3] of the same compound?
Answer: 1.13 mg/dL

— ChEMBL document CHEMBL3885881, “DrugMatrix”
